Results from US8597693B2, “Pharmaceutical composition with immunomodulating function” (Industrial Technology Research Institute, priority 2010, dated 2013).
In brackets after ≈: the same amount, converted by molar mass.

Columns and labels:
[1] = tested on: carrageenan induced hindpaw edema; assay: Carrageenan induced hindpaw edema in a rat model; type: in vivo, Long-Evan rats; settings: 3 mg/kg fed 1 hour before carrageenan (positive control), left hindpaw volume
Experimental: Long-Evan rats were fed with the extract (a) in Example 5 (i) in an amount of 250 mg/kg, 500 mg/kg, 1000 mg/kg, respectively. The positive control was fed with 3 mg/kg of indomethacin (NSAID). The negative control was fed with 10 ml/kg of 2% Tween 80 as a carrier. After 1 hour, the rats were injected 0.1 ml of 1% carrageenan on the left hindpaw. The volume of the rat's left hindpaw was measured by plethysmometer (Stoelting) at the 0, 1.5th, and 3rd hour after injection. The inhibition was calculated by the formula: Inhibition(%)=(Nt−Nv)/Nv×100
In the formula, Nt represents the left hindpaw volume of the rat fed with the ethanol extract; Nv represents the left hindpaw of the rat fed with the carrier.

TNF-α [2] = assay: TNBS enteritis mouse model, TNF-α in colon infusion; type: in vivo, BABL/c mice; settings: 0.6 mg/kg fed + 1.75 mg of TNBS; colon infusion after 48 hours; negative value = enhanced excretion
Description: (§1) The BABL/c mice were categorized into 4 groups. Each group had 6 […].

IL-6 [3] = assay: TNBS enteritis mouse model, IL-6 in colon infusion; type: in vivo, BABL/c mice; settings: 0.6 mg/kg fed + 1.75 mg of TNBS; colon infusion after 48 hours; negative value = enhanced excretion
Description: as §1

TNF-α [4] = assay: Inhibition of TNF-α excretion in LPS-stimulated U937 cells; type: cell-based; settings: Homo sapiens, U-937; PMA-activated U937, 30 minutes preincubation, LPS 4 hours, ELISA of supernatant
Experimental: The cell line, U937 (human monocyte cell line), was incubated in RPMI medium containing 50 ng/ml PMA (phorbol 12-myristate 13-acetate) (Sigma) and 10% fetal bovine serum (Moor et. al., Roswell Park Memorial Institute) for 24 hours. The cell line was then moved to the RPMI medium without PMA for further 48 hours. The activated U937 was seeded into a 96-well plate in a concentration of 1.6×10^5 cell/well. The wells were added 12.5 μg/ml, 25 μg/ml, 50 μg/ml and 100 μg/ml of kaerophyllin and 1 μg/ml, 3 μg/ml, 10 μg/ml and 30 μg/ml of isokaerphyllin and 10 μl of buffer, respectively. Each well was adjusted to a final volume of 190 μl. The plate was reacted under 37° C. for 30 minutes. Each well was added 10 μl of 20 μg/ml LPS to stimulate cells. After 4 hours under 37° C., the plate was centrifuged to collect the supernatants.
The amount of TNF-α in the supernatant was measured by ELISA (R&D System®) based on the control (DMSO). Meanwhile, the cell viability was measured by MTT assay (Sigma).

IL-6 [5] = assay: Inhibition of IL-6 excretion in LPS-stimulated U937 cells; type: cell-based; settings: Homo sapiens, U-937; PMA-activated U937, 30 minutes preincubation, LPS 16-18 hours, ELISA of supernatant
Experimental: The cell line, U937, was cultured like Example 13. The activated U937 was then seeded in a 96-well plate in a concentration of 1.6×10^5 cell/well. The wells were added 6.3 μg/ml, 12.5 μg/ml, 25 μg/ml and 50 μg/ml of kaerophyllin and 3.8 μg/ml, 7.5 μg/ml, 15 μg/ml and 30 μg/ml of isokaerphyllin and 10 μl of buffer, respectively. Each well was adjusted to a final volume of 190 μl. The plate was put under 37° C. for 30 minutes. Each well was added 10 μl of 20 μg/ml LPS to stimulate cells. After 16-18 hours under 37° C., the plate was centrifuged to collect the supernatants.
The amount of IL-6 in the supernatant was measured by ELISA (R&D System®) based on the control (DMSO). Meanwhile, the cell viability was measured by MTT assay (Sigma).

COc1ccc2c(c1)c(CC(=O)O)c(C)n2C(=O)c1ccc(Cl)cc1 [indomethacin]
Inhibition at 0 hour (%) ([1]; 0 hour): 0% | Inhibition at the 1.5th hour (%) ([1]; 1.5th hour): 21% | Inhibition at the 3rd hour (%) ([1]; 3rd hour): 52%

C[C@@H]1C[C@H]2[C@@H]3CCC4=CC(=O)C=C[C@]4(C)[C@@]3(F)[C@@H](O)C[C@]2(C)[C@@]1(O)C(=O)CO [DEX, dexamethasone]
Inhibition of TNF-α (%) (TNF-α [2]): 9% | Inhibition of IL-6 (%) (IL-6 [3]): −55%

COc1ccc(/C=C2\C(=O)OC[C@@H]2Cc2ccc3c(c2)OCO3)cc1OC [isokaerophyllin, cis-(3,4-dimethoxybenzylidene)-β-(3,4-methylenedioxylbenzyl)-γ-butyrolactone]
IC50 (TNF-α [4]): 18 ± 4 µg/mL (≈ 48.9 µM) | IC50 (IL-6 [5]): 24 ± 6 µg/mL (≈ 65.1 µM)
